Assay results published in patent US20060135522A1, “Tricyclic delta-opioid modulators” (priority 2004, published 2006).
Read-outs that look alike come from different tables or passages of the source.

How the values were obtained:
[1] = molecular target: T1, delta opioid receptor (Rattus norvegicus, UniProt P33533); assay: Rat Brain Delta Opioid Receptor Binding Assay
T1 construct: from tissue; host or cells: forebrain of male Wistar rats (particulate membrane preparation)
Experimental: Procedure: Male, Wistar rats (150-250 g, VAF, Charles River, Kingston, N.Y.) were killed by CO2, and their brains were removed and placed immediately in ice cold Tris HCl buffer (50 mM, pH 7.4). The forebrains were separated from the remainder of the brain by a coronal transection, beginning dorsally at the colliculi and passing ventrally through the midbrain-pontine junction. After dissection, the forebrains were homogenized in Tris buffer in a Teflon®-glass homogenizer. The homogenate was diluted to a concentration of 1 g of forebrain tissue per 80 mL Tris and centrifuged at 39,000×g for 10 min. The pellet was resuspended in the same volume of Tris buffer containing 5 mM MgCl2 with several brief pulses from a Polytron homogenizer. This particulate preparation was used for the delta opioid binding assays. Following incubation with the delta selective peptide ligand ˜4 nM [^3H]DPDPE or 0.15 nM [^3H]naltrindole at 25° C. for 2.5 h in a 96-well plate with total volume of […], the plate contents were filtered through Wallac filtermat B sheets on a Tomtec 96-well harvester. The filters were rinsed three times with 2 mL of 10 mM HEPES (pH 7.4), and dried in a 650 W microwave oven for 1.75 min twice. To each sample area 2×50 μL of Betaplate Scint scintillation fluid (LKB) was added and the radioactivity was quantified on a LKB (Wallac) 1205 BetaPlate liquid scintillation counter.
(§1) Analysis: The data from the scintillation counter was used to calculate either the % inhibition compared to control binding (when only a single concentration of test compound was evaluated) or a Ki value (when a range of concentrations was tested). Percent inhibition was calculated as: [(total dpm-test compound dpm)/(total dpm-nonspecific dpm)]*100. Kd and Ki values were calculated using GraphPad PRISM data analysis program.

[2] = molecular target: T2, delta opioid receptor (NG108-15 cell membranes) (Mus musculus, UniProt P32300); assay: [35S]GTPγS Binding Assay in NG108-15 Cell Membranes (Delta Opioid); assay type: biochemical
T2 construct: NG108-15 cell membranes were purchased from Applied Cell Sciences (Rockville, Md.); host or cells: NG108-15 cell membranes (purchased)
T2 sequence (P32300 whole entry): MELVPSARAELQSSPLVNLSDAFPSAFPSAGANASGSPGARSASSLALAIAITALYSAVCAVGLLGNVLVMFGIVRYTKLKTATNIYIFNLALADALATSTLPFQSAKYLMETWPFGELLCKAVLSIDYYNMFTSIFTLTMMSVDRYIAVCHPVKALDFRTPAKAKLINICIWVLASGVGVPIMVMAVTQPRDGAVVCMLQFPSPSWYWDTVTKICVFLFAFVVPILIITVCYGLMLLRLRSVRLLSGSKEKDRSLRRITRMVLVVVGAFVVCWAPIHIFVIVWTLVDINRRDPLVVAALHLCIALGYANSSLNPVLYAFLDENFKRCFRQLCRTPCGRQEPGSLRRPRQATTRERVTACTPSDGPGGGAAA
Experimental: Methods: NG108-15 cell membranes were purchased from Applied Cell Sciences (Rockville, Md.). 8 mg/mL of membrane protein was suspended in 10 mM TRIS-HCl pH 7.2, 2 mM EDTA, 10% sucrose. Membranes were maintained at 4-8° C. A 1 mL volume of membranes was added into 10 mL cold binding assay buffer. The assay buffer contained 50 mM Tris, pH 7.6, 5 mM MgCl2, 100 mM NaCl, 1 mM DTT and 1 mM EGTA. The membrane suspension was homogenized twice with a Polytron, and centrifuged at 3000 rpm for 10 min. The supernatant was then centrifuged at 18,000 rpm for 20 min. Ten mL assay buffer was added into the pellet containing tube. The pellet and buffer were mixed with a Polytron.
Incubation procedure: The pellet membranes (75 μg/mL) were preincubated with SPA (10 mg/mL) at 25° C. for 45 min in the assay buffer. […] GTPγS in the same Tris buffer containing 100 μM GDP in a total volume of 200 μL. Increasing concentrations of receptor agonists were used to stimulate [^35S]-GTP[…]S binding. The basal binding was tested in the absence of agonists and non-specific binding was tested in the presence of 10 μM unlabeled GTPγS. The data were analyzed on a Packard Top Count.
% of Basal=(stimulated−non specific)*100/(basal−non specific).
EC50 value values were calculated using GraphPad Prism.

[3] = molecular target: T3, mu opioid receptor (Rattus norvegicus, UniProt P33535); assay: Rat Brain Mu Opioid Receptor Binding Assay
T3 construct: from tissue; host or cells: forebrain of male Wistar rats (particulate membrane preparation)
T3 sequence (P33535 whole entry): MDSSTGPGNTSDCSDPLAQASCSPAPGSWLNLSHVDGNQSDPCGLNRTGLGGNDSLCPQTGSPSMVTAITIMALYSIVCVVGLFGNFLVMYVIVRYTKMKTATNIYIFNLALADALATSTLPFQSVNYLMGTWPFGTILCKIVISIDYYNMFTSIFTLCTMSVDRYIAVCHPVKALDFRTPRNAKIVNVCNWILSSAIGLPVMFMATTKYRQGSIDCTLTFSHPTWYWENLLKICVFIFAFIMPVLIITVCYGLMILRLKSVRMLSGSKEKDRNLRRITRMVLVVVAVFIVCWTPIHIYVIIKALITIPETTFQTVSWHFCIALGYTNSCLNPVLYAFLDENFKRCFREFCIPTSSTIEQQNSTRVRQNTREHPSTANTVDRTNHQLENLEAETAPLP
Experimental: Procedure: Male, Wistar rats (150-250 g, VAF, Charles River, Kingston, N.Y.) were killed by CO2, and their brains were removed and placed immediately in ice cold Tris HCl buffer (50 mM, pH 7.4). The forebrains were separated from the remainder of the brain by a coronal transection, beginning dorsally at the colliculi and passing ventrally through the midbrain-pontine junction. After dissection, the forebrains were homogenized in Tris buffer in a Teflon®-glass homogenizer. The homogenate was diluted to a concentration of 1 g of forebrain tissue per 80 mL Tris and centrifuged at 39,000×g for 10 min. The pellet was resuspended in the same volume of Tris buffer containing 5 mM MgCl2 with several brief pulses from a Polytron homogenizer. This particulate preparation was used for the mu opioid binding assays.
as §1

[4] = NG108-15 cell membranes, stimulation of [35S]GTPγS binding, read-out: delta GTPγS EC50
[5] = rat forebrain membranes, [3H]DAMGO, 25° C., 2.5 h, read-out: mu (Ki)
[6] = rat forebrain membranes, [3H]DPDPE or [3H]naltrindole, 25° C., 2.5 h, read-out: delta (Ki)

T1 sequence (P33533 whole entry): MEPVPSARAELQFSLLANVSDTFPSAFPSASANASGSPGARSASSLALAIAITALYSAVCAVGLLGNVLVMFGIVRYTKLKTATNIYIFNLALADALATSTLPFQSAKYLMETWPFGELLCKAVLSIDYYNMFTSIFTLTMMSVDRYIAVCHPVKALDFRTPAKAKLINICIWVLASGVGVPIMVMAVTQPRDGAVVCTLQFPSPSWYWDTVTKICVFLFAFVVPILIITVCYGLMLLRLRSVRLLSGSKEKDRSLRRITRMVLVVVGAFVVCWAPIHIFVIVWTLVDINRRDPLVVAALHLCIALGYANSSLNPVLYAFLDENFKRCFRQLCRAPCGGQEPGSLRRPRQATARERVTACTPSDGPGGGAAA

Structure (SMILES): CCN(CC)C(=O)c1ccc2c(c1)Oc1ccccc1C2C1CCNCC1 (centres unmarked) [8a, 9-Piperidin-4-yl-9H-xanthene-3-carboxylic acid diethylamide]
- Ki [1]: 0.015 µM
- EC50 [2, 4]: 0.266 µM
- Ki [3, 5]: 8.79 µM

Structure (SMILES): CCN(CC)C(=O)c1ccc2c(c1)Oc1c(O)cccc1C2C1CCNCC1 (centres unmarked) [7c, 5-Hydroxy-9-piperidin-4-yl-9H-xanthene-3-carboxylic acid diethylamide]
- Ki [1]: 0.002 µM
- EC50 [2]: 0.0187 µM
- delta GTPγS Rel Eff. ([2]; NG108-15 cell membranes, relative efficacy): 0.51
- Ki [3]: 4.23 µM

Structure (SMILES): O=C(c1ccc2c(c1)Oc1ccccc1C2C1CCNCC1)N1CC[C@H](O)C1 (stereo partly drawn) [4n, (3-(S)-Hydroxy-pyrrolidin-1-yl)-(9-piperidin-4-yl-9H-xanthen-3-yl)-methanone]
- Ki [1, 6]: 0.434 µM
- Ki [3, 5]: > 10 µM

Structure (SMILES): c1ccc(CN2CCC(C3c4ccccc4Oc4cc(-c5cccnc5)ccc43)CC2)cc1 (centres unmarked) [7f, 3-[9-(1-Benzyl-piperidin-4-yl)-9H-xanthen-3-yl]-pyridine]
- Ki [1]: 0.783 µM
- Ki [3]: 3.12 µM

Structure (SMILES): CCN(CC)C(=O)c1ccc2c(c1)Oc1ccccc1C2C1CCN(Cc2ccoc2)CC1 (centres unmarked) [9a, 9-(1-Furan-3-ylmethyl-piperidin-4-yl)-9H-xanthene-3-carboxylic acid diethylamide]
- Ki [1]: 0.141 µM
- Ki [3]: 51 µM

Structure (SMILES): CCN(CC)C(=O)c1ccc2c(c1)Oc1c(Cl)cccc1C2C1CCNCC1 (centres unmarked) [6k, 5-Chloro-9-piperidin-4-yl-9H-xanthene-3-carboxylic acid diethylamide]
- Ki [1, 6]: 0.274 µM
- Ki [3, 5]: 5.7 µM

Structure (SMILES): CCNC(=O)c1ccc2c(c1)Oc1c(O)cccc1C2C1CCNCC1 (centres unmarked) [5d, 5-Hydroxy-9-piperidin-4-yl-9H-xanthene-3-carboxylic acid ethylamide]
- Ki [1, 6]: 0.209 µM
- Ki [3, 5]: 0.876 µM

Structure (SMILES): CC(=O)Nc1ccccc1-c1ccc2c(c1)Oc1ccccc1C2C1CCN(Cc2ccccn2)CC1 (centres unmarked) [4g, N-{2-[9-(1-Pyridin-2-ylmethyl-piperidin-4-yl)-9H-xanthen-3-yl]-phenyl}-acetamide]
- Ki [1, 6]: 0.167 µM
- Ki [3, 5]: 6.98 µM

Structure (SMILES): c1cncc(-c2ccc3c(c2)Oc2ccccc2C3C2CCN(Cc3ccoc3)CC2)c1 (centres unmarked) [5f, 3-[9-(1-Furan-3-ylmethyl-piperidin-4-yl)-9H-xanthen-3-yl]-pyridine]
- Ki [1, 6]: 0.303 µM
- Ki [3, 5]: 3.16 µM

Structure (SMILES): COc1cccc2c1Oc1cc(-c3cccnc3)ccc1C2C1CCNCC1 (centres unmarked) [7b, 3-(5-Methoxy-9-piperidin-4-yl-9H-xanthen-3-yl)-pyridine]
- Ki [1, 6]: 0.318 µM
- Ki [3, 5]: > 10 µM

Structure (SMILES): CCN(CC)C(=O)c1ccc2c(c1)Oc1ccccc1C2C1CCN(Cc2cccs2)CC1 (centres unmarked) [15a, 9-(1-Thiophen-2-ylmethyl-piperidin-4-yl)-9H-xanthene-3-carboxylic acid diethylamide]
- Ki [1]: 0.45 µM
- Ki [3]: 4.12 µM

Structure (SMILES): c1ccc(CCN2CCC(C3c4ccccc4Oc4cc(-c5cccnc5)ccc43)CC2)cc1 (centres unmarked) [8f, 3-[9-(1-Phenethyl-piperidin-4-yl)-9H-xanthen-3-yl]-pyridine]
- Ki [1, 6]: 2.99 µM
- Ki [3, 5]: 0.907 µM

Structure (SMILES): c1ccc(CN2CCC(C3c4ccccc4Oc4cc(-c5ccncc5)ccc43)CC2)nc1 (centres unmarked) [4h, 4-[9-(1-Pyridin-2-ylmethyl-piperidin-4-yl)-9H-xanthen-3-yl]-pyridine]
- Ki [1]: 2.64 µM
- Ki [3]: 2.05 µM

Structure (SMILES): CCN(CC)C(=O)c1cccc(-c2ccc3c(c2)Oc2c(O)cccc2C3C2CCNCC2)c1 (centres unmarked) [3j, N,N-Diethyl-3-(5-hydroxy-9-piperidin-4-yl-9H-xanthen-3-yl)-benzamide]
- Ki [1]: 0.0378 µM
- EC50 [2, 4]: 0.342 µM
- Ki [3, 5]: 0.535 µM

Structure (SMILES): COc1cccc2c1Oc1cc(-c3ccccc3NC(C)=O)ccc1C2C1CCNCC1 (centres unmarked) [9b, N-[2-(5-Methoxy-9-piperidin-4-yl-9H-xanthen-3-yl)-phenyl]-acetamide]
- Ki [1, 6]: 0.761 µM
- Ki [3, 5]: 4.45 µM

Structure (SMILES): c1ccc2c(c1)Oc1cc(-c3nnn[nH]3)ccc1C2C1CCNCC1 (centres unmarked) [3l, 4-[3-(1H-Tetrazol-5-yl)-9H-xanthen-9-yl]-piperidine]
- Ki [1, 6]: 0.768 µM
- Ki [3, 5]: > 10 µM

Structure (SMILES): CC(=O)Nc1ccccc1-c1ccc2c(c1)Oc1ccccc1C2C1CCN(Cc2ccoc2)CC1 (centres unmarked) [3g, N-{2-[9-(1-Furan-3-ylmethyl-piperidin-4-yl)-9H-xanthen-3-yl]-phenyl}-acetamide]
- Ki [1]: 0.1 µM
- Ki [3, 5]: 4.44 µM

Structure (SMILES): C=CCN1CCC(C2c3ccccc3Oc3cc(-c4ccccc4NC(C)=O)ccc32)CC1 (centres unmarked) [6g, N-{2-[9-(1-Allyl-piperidin-4-yl)-9H-xanthen-3-yl]-phenyl}-acetamide]
- Ki [1, 6]: 1.09 µM
- Ki [3, 5]: 9.63 µM

Structure (SMILES): O=c1[nH]c(-c2ccc3c(c2)Oc2ccccc2C3C2CCNCC2)no1 (centres unmarked) [2m, 3-(9-Piperidin-4-yl-9H-xanthen-3-yl)-4H-[1,2,4]oxadiazol-5-one]
- Ki [1]: 0.634 µM
- Ki [3]: > 10 µM

Structure (SMILES): CC(=O)Nc1ccccc1-c1ccc2c(c1)Oc1ccccc1C2C1CCNCC1 (centres unmarked) [2g, N-[2-(9-Piperidin-4-yl-9H-xanthen-3-yl)-phenyl]-acetamide]
- Ki [1, 6]: 1.02 µM
- Ki [3, 5]: > 10 µM
